From the NIST ThermoML archive (doi:10.1016/j.fluid.2010.10.028)
± gives the expanded uncertainty stated by the source.

Experiment: xn = mol fraction of the nth substance listed
Conditions: Liquid, Vibrating tube method

Compound `CC(C)=O` [acetone] + CCCCCCC has a mass density (397.28 K, 64890 kPa, x1 = 0.7024) of 708.2 ± 1.4 kg/m3, a mass density (397.28 K, 69880 kPa, x1 = 0.7024) of 712.51 ± 1.5 kg/m3 and a mass density (397.28 K, 74860 kPa, x1 = 0.7024) of 716.61 ± 1.5 kg/m3. It also gave a mass density (397.28 K, 74910 kPa, x1 = 0.492) of 698.27 ± 1.5 kg/m3, a mass density (397.28 K, 74910 kPa, x1 = 0.801) of 727.94 ± 1.5 kg/m3 and a mass density (397.28 K, 74920 kPa, x1 = 0.611) of 707.37 ± 1.5 kg/m3. It also gave a mass density (397.28 K, 79830 kPa, x1 = 0.7024) of 720.53 ± 1.5 kg/m3, a mass density (397.28 K, 79900 kPa, x1 = 0.492) of 702.07 ± 1.6 kg/m3 and a mass density (397.28 K, 84840 kPa, x1 = 0.7024) of 724.33 ± 1.5 kg/m3. The mass density (397.28 K, 84890 kPa, x1 = 0.492) was 705.69 ± 1.6 kg/m3, the mass density (397.28 K, 89820 kPa, x1 = 0.7024) was 727.97 ± 1.6 kg/m3 and the mass density (397.28 K, 94800 kPa, x1 = 0.7024) was 731.49 ± 1.6 kg/m3. It also gave a mass density (397.28 K, 94850 kPa, x1 = 0.492) of 712.56 ± 1.6 kg/m3, a mass density (397.28 K, 99780 kPa, x1 = 0.7024) of 734.88 ± 1.6 kg/m3 and a mass density (397.28 K, 99820 kPa, x1 = 0.801) of 746.56 ± 1.6 kg/m3. It also gave a mass density (397.28 K, 104760 kPa, x1 = 0.7024) of 738.15 ± 1.6 kg/m3, a mass density (397.28 K, 109780 kPa, x1 = 0.801) of 753.14 ± 1.6 kg/m3 and a mass density (397.28 K, 114820 kPa, x1 = 0.7024) of 744.47 ± 1.7 kg/m3. The mass density (397.28 K, 114850 kPa, x1 = 0.492) was 725.01 ± 1.7 kg/m3, the mass density (397.28 K, 114850 kPa, x1 = 0.801) was 756.36 ± 1.6 kg/m3 and the mass density (397.28 K, 114870 kPa, x1 = 0.611) was 734.74 ± 1.7 kg/m3. The mass density (397.28 K, 119800 kPa, x1 = 0.7024) was 747.44 ± 1.7 kg/m3, the mass density (397.28 K, 119860 kPa, x1 = 0.611) was 737.69 ± 1.7 kg/m3 and the mass density (397.28 K, 124830 kPa, x1 = 0.7024) was 750.39 ± 1.7 kg/m3. The mass density (397.28 K, 124840 kPa, x1 = 0.492) was 730.68 ± 1.8 kg/m3, the mass density (397.28 K, 124840 kPa, x1 = 0.801) was 762.38 ± 1.7 kg/m3 and the mass density (397.28 K, 124860 kPa, x1 = 0.611) was 740.54 ± 1.8 kg/m3. For the same compound, the mass density (397.28 K, 129790 kPa, x1 = 0.7024) was 753.19 ± 1.7 kg/m3, the mass density (397.28 K, 129840 kPa, x1 = 0.492) was 733.39 ± 1.8 kg/m3 and the mass density (397.28 K, 129840 kPa, x1 = 0.611) was 743.3 ± 1.8 kg/m3. It also gave a mass density (397.29 K, 19850 kPa, x1 = 0.492) of 638.92 ± 1.3 kg/m3, a mass density (397.29 K, 24860 kPa, x1 = 0.492) of 646.54 ± 1.3 kg/m3 and a mass density (397.29 K, 39850 kPa, x1 = 0.492) of 665.68 ± 1.4 kg/m3. For the same compound, the mass density (397.29 K, 49840 kPa, x1 = 0.492) was 676.28 ± 1.4 kg/m3, the mass density (397.29 K, 69930 kPa, x1 = 0.492) was 694.29 ± 1.5 kg/m3 and the mass density (397.29 K, 89860 kPa, x1 = 0.492) was 709.18 ± 1.6 kg/m3. For the same compound, the mass density (397.29 K, 99830 kPa, x1 = 0.492) was 715.82 ± 1.6 kg/m3, the mass density (397.29 K, 104800 kPa, x1 = 0.492) was 718.94 ± 1.7 kg/m3 and the mass density (397.29 K, 109740 kPa, x1 = 0.7024) was 741.31 ± 1.6 kg/m3. It also gave a mass density (397.29 K, 109770 kPa, x1 = 0.492) of 722 ± 1.7 kg/m3, a mass density (397.29 K, 119840 kPa, x1 = 0.492) of 727.87 ± 1.8 kg/m3 and a mass density (407.2 K, 1850 kPa, x1 = 0.4) of 626.34 ± 1.2 kg/m3. It also gave a mass density (407.2 K, 1850 kPa, x1 = 0.8992) of 626.34 ± 1.2 kg/m3, a mass density (407.2 K, 5000 kPa, x1 = 0.4) of 635.78 ± 1.2 kg/m3 and a mass density (407.2 K, 5000 kPa, x1 = 0.8992) of 635.78 ± 1.2 kg/m3. The mass density (407.2 K, 10000 kPa, x1 = 0.4) was 648.49 ± 1.2 kg/m3, the mass density (407.2 K, 10000 kPa, x1 = 0.8992) was 648.49 ± 1.2 kg/m3 and the mass density (407.2 K, 14980 kPa, x1 = 0.4) was 659.29 ± 1.3 kg/m3. The mass density (407.2 K, 14980 kPa, x1 = 0.8992) was 659.29 ± 1.2 kg/m3, the mass density (407.2 K, 49890 kPa, x1 = 0.4) was 710.54 ± 1.4 kg/m3 and the mass density (407.2 K, 49890 kPa, x1 = 0.8992) was 710.54 ± 1.4 kg/m3. The mass density (407.21 K, 1650 kPa, x1 = 0.611) was 594.88 ± 1.2 kg/m3, the mass density (407.21 K, 1660 kPa, x1 = 0.801) was 612.07 ± 1.2 kg/m3 and the mass density (407.21 K, 4870 kPa, x1 = 0.611) was 604.63 ± 1.2 kg/m3. For the same compound, the mass density (407.21 K, 4870 kPa, x1 = 0.801) was 621.91 ± 1.2 kg/m3, the mass density (407.21 K, 9870 kPa, x1 = 0.611) was 617.29 ± 1.2 kg/m3 and the mass density (407.21 K, 14860 kPa, x1 = 0.801) was 645.72 ± 1.2 kg/m3. It also gave a mass density (407.21 K, 14880 kPa, x1 = 0.611) of 627.98 ± 1.2 kg/m3, a mass density (407.21 K, 19850 kPa, x1 = 0.801) of 655.22 ± 1.3 kg/m3 and a mass density (407.21 K, 19960 kPa, x1 = 0.4) of 668.77 ± 1.3 kg/m3. It also gave a mass density (407.21 K, 19960 kPa, x1 = 0.8992) of 668.77 ± 1.3 kg/m3, a mass density (407.21 K, 24940 kPa, x1 = 0.4) of 677.3 ± 1.3 kg/m3 and a mass density (407.21 K, 24940 kPa, x1 = 0.8992) of 677.3 ± 1.3 kg/m3. It also gave a mass density (407.21 K, 29940 kPa, x1 = 0.4) of 685.05 ± 1.3 kg/m3, a mass density (407.21 K, 29940 kPa, x1 = 0.8992) of 685.05 ± 1.3 kg/m3 and a mass density (407.21 K, 34930 kPa, x1 = 0.4) of 692.12 ± 1.3 kg/m3. For the same compound, the mass density (407.21 K, 34930 kPa, x1 = 0.8992) was 692.12 ± 1.3 kg/m3, the mass density (407.21 K, 39920 kPa, x1 = 0.4) was 698.68 ± 1.4 kg/m3 and the mass density (407.21 K, 39920 kPa, x1 = 0.8992) was 698.68 ± 1.3 kg/m3. The mass density (407.21 K, 44900 kPa, x1 = 0.4) was 704.79 ± 1.4 kg/m3, the mass density (407.21 K, 44900 kPa, x1 = 0.8992) was 704.79 ± 1.4 kg/m3 and the mass density (407.21 K, 54880 kPa, x1 = 0.4) was 715.92 ± 1.4 kg/m3. It also gave a mass density (407.21 K, 54880 kPa, x1 = 0.8992) of 715.92 ± 1.4 kg/m3, a mass density (407.21 K, 59880 kPa, x1 = 0.4) of 721.06 ± 1.4 kg/m3 and a mass density (407.21 K, 59880 kPa, x1 = 0.8992) of 721.06 ± 1.4 kg/m3. The mass density (407.21 K, 64860 kPa, x1 = 0.4) was 725.91 ± 1.4 kg/m3, the mass density (407.21 K, 64860 kPa, x1 = 0.8992) was 725.91 ± 1.4 kg/m3 and the mass density (407.21 K, 69840 kPa, x1 = 0.4) was 730.52 ± 1.5 kg/m3. It also gave a mass density (407.21 K, 69840 kPa, x1 = 0.8992) of 730.52 ± 1.4 kg/m3, a mass density (407.21 K, 74830 kPa, x1 = 0.4) of 734.95 ± 1.5 kg/m3 and a mass density (407.21 K, 74830 kPa, x1 = 0.8992) of 734.95 ± 1.5 kg/m3. The mass density (407.21 K, 79810 kPa, x1 = 0.4) was 739.19 ± 1.5 kg/m3, the mass density (407.21 K, 79810 kPa, x1 = 0.8992) was 739.19 ± 1.5 kg/m3 and the mass density (407.21 K, 84790 kPa, x1 = 0.4) was 743.24 ± 1.5 kg/m3. The mass density (407.21 K, 84790 kPa, x1 = 0.8992) was 743.24 ± 1.5 kg/m3, the mass density (407.21 K, 89780 kPa, x1 = 0.4) was 747.17 ± 1.5 kg/m3 and the mass density (407.21 K, 89780 kPa, x1 = 0.8992) was 747.17 ± 1.5 kg/m3. The mass density (407.22 K, 1650 kPa, x1 = 0.492) was 588.49 ± 1.2 kg/m3, the mass density (407.22 K, 4850 kPa, x1 = 0.492) was 597.92 ± 1.2 kg/m3 and the mass density (407.22 K, 9860 kPa, x1 = 0.801) was 634.81 ± 1.2 kg/m3. For the same compound, the mass density (407.22 K, 19860 kPa, x1 = 0.611) was 637.25 ± 1.3 kg/m3.
